Values of other authors, collected in patent US20140296155A1, “ANTI-STRETCH MARK SKIN CREAM AND METHOD FOR MAKING AND USING THEREOF” (priority 2011, published 2014).

Tested on: Type 1 and Type 3 collagen

SMILES: O=C1O[C@H]([C@@H](O)CO)C(O)=C1O [Vitamin C, Ascorbic Acid]
- collagen formation over control levels: 3-4 fold
